ChEMBL document CHEMBL3784979, “Design, synthesis and biological evaluation of novel benzimidazole-2-substituted phenyl or pyridine propyl ketene derivatives as antitumour agents” (Eur J Med Chem, 2016)
The source made the active and inactive calls. No cut-off for these calls is given here.

Assays:
[1] = Antiproliferative activity against human HCT116 cells after 48 hrs by MTT assay; format: functional, cell-based; conditions: HCT-116, 48 h
MCF7 = test: Antiproliferative activity against human MCF7 cells after 48 hrs by MTT assay; format: functional, cell-based; conditions: MCF7, 48 h
HepG2 = test: Antiproliferative activity against human HepG2 cells after 48 hrs by MTT assay; format: functional, cell-based; conditions: HepG2, 48 h
[2] = Cell cycle arrest in human HCT116 cells assessed as accumulation at G1 phase at 0.04 uM after 72 hrs by propidium iodide staining based flow cytometry (reference value: 31.72 +/- 2.21%); format: functional; conditions: HCT-116
HCT-116 [3] = test: Potency index, ratio of 5-fluorouracil IC50 to compound IC50 for human HCT116 cells; format: functional
HCT-116 [4] = test: Antitumor activity against human HCT116 cells xenografted in ip dosed BALB/c mouse assessed as tumor growth inhibition administered twice weekly for 4 weeks measured 24 hrs post last dose; format: functional, organism-based
[5] = Antitumor activity against human HCT116 cells xenografted in BALB/c mouse assessed as tumor growth inhibition at 200 mg/kg, ip twice weekly for 4 weeks measured 24 hrs post last dose relative to control; format: functional; conditions: HCT-116, ip, read-out: TGI
[6] = target: T1, Tumour suppressor p53/oncoprotein Mdm2 (Homo sapiens) (UniProt P04637+Q00987); test: Inhibition of MDM2/P53 protein interaction in human HCT116 cells at 0.1 to 1 uM after 24 hrs by immunoprecipitation analysis; format: cell-based; conditions: HCT-116
T1 sequence (P04637 whole entry, looked up): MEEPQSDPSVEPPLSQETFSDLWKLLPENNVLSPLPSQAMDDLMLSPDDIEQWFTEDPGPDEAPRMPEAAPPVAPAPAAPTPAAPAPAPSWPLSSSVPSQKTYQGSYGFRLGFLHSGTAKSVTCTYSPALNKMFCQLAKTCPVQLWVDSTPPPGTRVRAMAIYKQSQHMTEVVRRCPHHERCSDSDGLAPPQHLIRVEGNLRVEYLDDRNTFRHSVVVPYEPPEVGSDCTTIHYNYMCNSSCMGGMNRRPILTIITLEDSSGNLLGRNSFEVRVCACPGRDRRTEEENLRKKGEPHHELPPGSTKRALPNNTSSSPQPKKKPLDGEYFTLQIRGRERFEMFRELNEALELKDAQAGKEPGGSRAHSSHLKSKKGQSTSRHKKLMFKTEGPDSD
T1 sequence (Q00987 whole entry, looked up): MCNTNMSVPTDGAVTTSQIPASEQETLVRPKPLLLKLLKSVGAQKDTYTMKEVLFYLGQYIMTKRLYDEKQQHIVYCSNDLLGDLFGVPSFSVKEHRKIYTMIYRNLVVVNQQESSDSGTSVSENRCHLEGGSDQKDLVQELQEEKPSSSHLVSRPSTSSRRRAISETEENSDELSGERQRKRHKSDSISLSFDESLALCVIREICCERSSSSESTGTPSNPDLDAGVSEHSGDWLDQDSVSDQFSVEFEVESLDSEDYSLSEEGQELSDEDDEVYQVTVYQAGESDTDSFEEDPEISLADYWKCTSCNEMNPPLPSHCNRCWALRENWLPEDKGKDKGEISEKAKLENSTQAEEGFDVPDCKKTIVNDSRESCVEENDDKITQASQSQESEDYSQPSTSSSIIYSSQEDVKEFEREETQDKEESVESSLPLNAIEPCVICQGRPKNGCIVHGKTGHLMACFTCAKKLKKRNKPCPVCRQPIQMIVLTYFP

[7] = Cell cycle arrest in human HCT116 cells assessed as accumulation at G2 phase at 0.04 uM after 72 hrs by propidium iodide staining based flow cytometry (reference value: 27.73 +/- 3.56%); format: functional; conditions: HCT-116
[8] = Antiproliferative activity against p53 deficient human HCT116 cells after 48 hrs by MTT assay; format: functional, cell-based; conditions: HCT-116, 48 h
Mus musculus [9] = test: Toxicity in BALB/c mouse assessed as change in body weight at 100 to 200 mg/kg, ip twice weekly for 4 weeks measured 24 hrs post last dose; format: organism-based; conditions: in vivo
[10] = Toxicity in ip dosed BALB/c mouse by bliss test; format: organism-based; conditions: in vivo
[11] = Cell cycle arrest in human HCT116 cells assessed as accumulation at S phase at 0.04 uM after 72 hrs by propidium iodide staining based flow cytometry (reference value: 40.55 +/- 1.36%); format: functional; conditions: HCT-116
[12] = Cell cycle arrest in human HCT116 cells assessed as accumulation at G1 phase at 0.58 uM after 72 hrs by propidium iodide staining based flow cytometry (reference value: 31.72 +/- 2.21%); format: functional; conditions: HCT-116
[13] = Cell cycle arrest in human HCT116 cells assessed as accumulation at S phase at 0.58 uM after 72 hrs by propidium iodide staining based flow cytometry (reference value: 40.55 +/- 1.36%); format: functional; conditions: HCT-116
[14] = target: T1, Tumour suppressor p53/oncoprotein Mdm2 (Homo sapiens); test: Inhibition of MDM2/P53 protein interaction in human HCT116 cells at 0.5 to 5 uM after 24 hrs by immunoprecipitation analysis; format: cell-based; conditions: HCT-116
[15] = Cell cycle arrest in human HCT116 cells assessed as accumulation at G2 phase at 0.58 uM after 72 hrs by propidium iodide staining based flow cytometry (reference value: 27.73 +/- 3.56%); format: functional; conditions: HCT-116
[16] = Cell cycle arrest in human HCT116 cells assessed as accumulation at G1 phase after 72 hrs by propidium iodide staining based flow cytometry (reference value: 31.72 +/- 2.21%); format: functional; conditions: HCT-116
[17] = Cell cycle arrest in human HCT116 cells assessed as accumulation at G2 phase after 72 hrs by propidium iodide staining based flow cytometry (reference value: 27.73 +/- 3.56%); format: functional; conditions: HCT-116
[18] = Cell cycle arrest in human HCT116 cells assessed as accumulation at S phase after 72 hrs by propidium iodide staining based flow cytometry (reference value: 40.55 +/- 1.36%); format: functional; conditions: HCT-116
[19] = Cell cycle arrest in human HCT116 cells assessed as accumulation at G1 phase at 0.06 uM after 72 hrs by propidium iodide staining based flow cytometry (reference value: 31.72 +/- 2.21%); format: functional; conditions: HCT-116
[20] = Cell cycle arrest in human HCT116 cells assessed as accumulation at S phase at 0.06 uM after 72 hrs by propidium iodide staining based flow cytometry (reference value: 40.55 +/- 1.36%); format: functional; conditions: HCT-116
[21] = Cell cycle arrest in human HCT116 cells assessed as accumulation at G2 phase at 0.06 uM after 72 hrs by propidium iodide staining based flow cytometry (reference value: 27.73 +/- 3.56%); format: functional; conditions: HCT-116
Mus musculus [22] = test: Toxicity in BALB/c mouse assessed as reduction in body weight at 12.5 mg/kg, ip twice weekly for 4 weeks measured 24 hrs post last dose; format: organism-based; conditions: in vivo
[23] = Antitumor activity against human HCT116 cells xenografted in BALB/c mouse assessed as tumor growth inhibition at 12.5 mg/kg, ip twice weekly for 4 weeks measured 24 hrs post last dose relative to control; format: functional; conditions: HCT-116, ip, read-out: TGI

SMILES | IC50 [1] [µM] | IC50 (MCF7) [µM] | IC50 (HepG2) [µM] | also measured
COc1cccc(/C=C/C(=O)c2nc3ccccc3o2)c1 | > 100 | > 100 | > 100 | –
O=C(/C=C/c1cccc(Cl)c1)c1nc2ccccc2s1 | > 100 | > 100 | > 100 | –
O=C(/C=C/c1cccc(Cl)c1)c1nc2ccccc2[nH]1 | 0.03 | 9.8 | 0.75 | Activity [2]: 65%; Ratio IC50 (HCT-116 [3]): 950; TGI (HCT-116 [4]): Dose-dependent effect; inhibition in vivo at 200 mg/kg [5]: 74.6%; inhibition [6]: Active; Activity [7]: 17.8%; IC50 [8]: 1.95 µM; Activity (Mus musculus [9]): Non-toxic; LD50 [10]: 692 mg/kg; Activity [11]: 17.2%
OC(/C=C/c1ccccn1)c1nc2ccccc2[nH]1 (stereo not drawn) | > 100 | > 100 | > 50 | –
O=C(/C=C/c1ccccc1Br)c1nc2ccccc2[nH]1 | 16.4 | 50.9 | 29.2 | –
COc1cccc(/C=C/C(=O)c2nc3ccccc3[nH]2)c1 | 0.58 | 21.7 | 5.68 | TGI (HCT-116 [4]): Dose-dependent effect; Activity [12]: 60.5%; Activity [13]: 19%; inhibition [14]: Active; IC50 [8]: 4.75 µM; Activity [15]: 20.5%; Activity (Mus musculus [9]): Non-toxic; LD50 [10]: 1220 mg/kg
COc1cccc(/C=C/C(=O)c2nc3ccccc3s2)c1 | > 100 | > 100 | > 100 | –
O=C(/C=C/c1cccnc1)c1nc2ccccc2[nH]1 | 15.3 | 21.7 | 8.48 | –
O=C(CCc1cccc(Cl)c1)c1nc2ccccc2[nH]1 | > 100 | > 100 | > 100 | –
COc1ccc(C2=N[C@H](c3ccc(Cl)cc3)[C@H](c3ccc(Cl)cc3)N2C(=O)N2CCNC(=O)C2)c(OC(C)C)c1 | – | – | – | Activity [16]: 62.5%; Activity [17]: 12.7%; Activity [18]: 24.8%
Cc1ccccc1/C=C/C(=O)c1nc2ccccc2[nH]1 | 0.86 | 62.5 | 6.71 | IC50 [8]: 4.39 µM
OC(/C=C/c1cccc(Cl)c1)c1nc2ccccc2[nH]1 (stereo not drawn) | > 100 | > 100 | > 100 | –
COc1ccccc1/C=C/C(=O)c1nc2ccccc2[nH]1 | 4.79 | 41.3 | 7.99 | –
O=C(/C=C/c1ccccn1)c1nc2ccccc2s1 | > 100 | > 100 | > 100 | –
O=C(/C=C/c1ccccc1)c1nc2ccccc2[nH]1 | 0.2 | 39.8 | 6.3 | IC50 [8]: 2.07 µM
O=C(/C=C/c1ccccn1)c1nc2ccccc2[nH]1 | 0.06 | 3.64 | 0.34 | Ratio IC50 (HCT-116 [3]): 950; TGI (HCT-116 [4]): Dose-dependent effect; Activity [19]: 64.5%; inhibition [6]: Active; Activity [20]: 18.9%; IC50 [8]: 1.45 µM; Activity [21]: 16.6%; Activity (Mus musculus [9]): Non-toxic; LD50 [10]: 634 mg/kg
O=C(/C=C/c1ccccn1)c1nc2ccccc2o1 | > 100 | > 100 | > 100 | –
O=C(/C=C/c1cccc(Cl)c1)c1nc2ccccc2o1 | > 100 | > 100 | > 100 | –
CCc1c2c(nc3ccc(OC(=O)N4CCC(N5CCCCC5)CC4)cc13)-c1cc3c(c(=O)n1C2)COC(=O)[C@]3(O)CC [IRINOTECAN] | – | – | – | Activity (Mus musculus [22]): 3.66 g; inhibition in vivo at 12.5 mg/kg [23]: 70.2%
COc1ccc(/C=C/C(=O)c2nc3ccccc3[nH]2)cc1 | 13.1 | > 100 | 7.41 | –
COc1cccc(/C=C/C(O)c2nc3ccccc3[nH]2)c1 (stereo not drawn) | > 100 | > 100 | > 100 | –
O=C(/C=C/c1ccc(Cl)cc1)c1nc2ccccc2[nH]1 | 6.79 | 24.8 | 12.5 | –
O=C(/C=C/c1cccc(Br)c1)c1nc2ccccc2[nH]1 | 0.79 | 19.3 | 1.59 | IC50 [8]: 2.94 µM
O=C(CCc1ccccn1)c1nc2ccccc2[nH]1 | > 100 | > 100 | > 100 | –
O=C(/C=C/c1ccncc1)c1nc2ccccc2[nH]1 | 0.71 | 20.9 | 6.94 | IC50 [8]: 5.61 µM
O=c1[nH]cc(F)c(=O)[nH]1 [FLUOROURACIL] | 57 | 223 | 174 | –
CC(=O)O[C@H]1C(=O)[C@@]2(C)[C@H]([C@H](OC(=O)c3ccccc3)[C@]3(O)C[C@H](OC(=O)[C@H](O)[C@@H](NC(=O)c4ccccc4)c4ccccc4)C(C)=C1C3(C)C)[C@]1(OC(C)=O)CO[C@@H]1C[C@@H]2O [PACLITAXEL] | 0.0673 | – | 0.0217 | –
O=C(/C=C/c1ccc(Br)cc1)c1nc2ccccc2[nH]1 | 19.6 | 52.7 | 10.9 | –
